Reference: patent US20150089682A1, “ALS Inhibitor Herbicide Tolerant B. Napus Mutants” (priority 2012, published 2015)
Substitutions are numbered along the chain they refer to. Names and notes keep the numbering of the source.

B1: Wild-type: Arabidopsis thaliana wild-type ALS expressed in Escherichia coli, crude protein extract (protein, UniProt P17597 56-670, looked up)
Acetolactate synthase, …: SSSPSSISAVLNTTTNVTTTPSPTKPTKPETFISRFAPDQPRKGADILVEALERQGVETVFAYPGGASMEIHQALTRSSSIRNVLPRHEQGGVFAAEGYARSSGKPGICIATSGPGATNLVSGLADALLDSVPLVAITGQVPRRMIGTDAFQETPIVEVTRSITKHNYLVMDVEDIPRIIEEAFFLATSGRPGPVLVDVPKDIQQQLAIPNWEQAMRLPGYMSRMPKPPEDSHLEQIVRLISESKKPVLYVGGGCLNSSDELGRFVELTGIPVASTLMGLGSYPCDDELSLHMLGMHGTVYANYAVEHSDLLLAFGVRFDDRVTGKLEAFASRAKIVHIDIDSAEIGKNKTPHVSVCGDVKLALQGMNKVLENRAEELKLDFGVWRNELNVQKQKFPLSFKTFGEAIPPQYAIKVLDELTDGKAIISTGVGQHQMWAAQFYNYKKPRQWLSSGGLGAMGFGLPAAIGASVANPDAIVVDIDGDGSFIMNVQELATIRVENLPVKVLLLNNQHLGMVMQWEDRFYKANRAHTFLGDPAQEDEIFPNMLLFAAACGIPAARVTKKADLREAIQTMLDTPGPYLLDVICPHQEHVLPMIPSGGTFNDVITEGDGRIKY
B2: S653N: Arabidopsis thaliana S653N-mutant ALS expressed in Escherichia coli, crude protein extract (protein, UniProt P17597 56-670, looked up, variant S653N)
Acetolactate synthase, …: B1 Acetolactate synthase, … with S598N
B3: W574L: Arabidopsis thaliana W574L-mutant ALS expressed in Escherichia coli, crude protein extract (protein, UniProt P17597 56-670, looked up, variant W574L)
Acetolactate synthase, …: B1 Acetolactate synthase, … with W519L
B4: P197S: Arabidopsis thaliana P197S-mutant ALS expressed in Escherichia coli, crude protein extract (protein, UniProt P17597 56-670, looked up, variant P197S)
Acetolactate synthase, …: B1 Acetolactate synthase, … with P142S

Experiments:
[1] = target: T1, mixture of P197S and W574L ALS enzymes (Arabidopsis thaliana, UniProt P17597); format: biochemical; details: for pI50 P197S & W574L: calculated for a mixture of equal activities of the two enzymes, pI50=3.0 used where measured <4; for Resistance Factor P197S & W574L: relative to WT, calculated
T1 construct: crude E. coli extract was used
Procedure: (§1) Assays were initiated by adding enzyme and terminated after 75 min incubation at 30° C. by the addition to 40 μl 0.5 M H2SO4. […] Reaction velocities were tiffed to the Michalis-Menten equation with the XLFit curve fitting program.
(§2) To characterize the response of a mixture of two different ALS enzymes to a given ALS inhibitor the following assumptions were made: • a inhibition is competitive and reversible • b. in the absence of inhibitor, equal activities of the ALS (mutant) enzymes 1 and 2 are present
(§3) Using experimentally determined pI50-values for various ALS-inhibiting herbicides, enzyme activities at different inhibitor concentrations were calculated (see Theory) for each ALS enzyme. Total ALS activity at any given inhibitor concentration is the sum of the activity of (mutant) enzyme 1 and (mutant) enzyme 2. If the experimentally determined pI50-value was <4, pI50=3.0 was used for the calculations. If the calculated pI50-value was 3.0, the pI50 was redefined as <4.

[2] = target: T2, mixture of S653N and W574L ALS enzymes (Arabidopsis thaliana, UniProt P17597); format: biochemical; details: for pI50 S653N & W574L: calculated for a mixture of equal activities of the two enzymes, pI50=3.0 used where measured <4; for Resistance Factor S653N & W574L: relative to WT, calculated
T2 construct: crude E. coli extract was used
Procedure: as §1, §2, §3

[3] = tested on: spring oilseed rape homozygous for HETO108 and HETO121; assay: Herbicide tolerance in the field, visible phytotoxicity; format: in vivo, Brassica napus; details: HETO108-HETO121, field, 18 days after application, 0%=no phytotoxic effects, 100%=all plants killed; for pest or weed control at 30 g/ha: AI dose rate 30 gai/ha; for pest or weed control at 50 g/ha: AI dose rate 50 gai/ha
Description: (§4) Seeds of spring oilseed rape homozygous for HETO108 and HETO121 were sown in a field according to typical practical agricultural methods. The registered spring oilseed rape variety ABILITY served as a comparison. All plants were cultivated up to BBCH stage 14 (four true leaves of the oilseed rape plants). Afterwards, the herbicides mentioned in table 2 have been applied to the oilseed rape plants by using specific spray equipment for small plot applications. The water amount used was 200 L/ha.

[4] = tested on: spring oilseed rape variety ABILITY; assay: as above; format: in vivo, Brassica napus; details: ABILITY, field, 18 days after application, 0%=no phytotoxic effects, 100%=all plants killed; for pest or weed control at 30 g/ha: AI dose rate 30 gai/ha; for pest or weed control at 50 g/ha: AI dose rate 50 gai/ha
Description: as §4

[5] = target: T3, Arabidopsis thaliana wild-type ALS (Arabidopsis thaliana, UniProt P17597, E575Q); assay: biochemical; details: measured, crude extract of E. coli expressed enzyme; for IC50: read-out: pI50 WT (converted)
T3 construct: vector-encoded N-terminal fusion of pET-32a(+) (Trx/His/S tag by own knowledge); made in house; host or cells: Escherichia coli AD494
Procedure: (§5) Bacteria were grown at 37° C. in LB-medium containing 100 mg/1 carbenicillin and 25 mg/1 canamycin, induced with 1 mM isopropyl-β-D-thiogalactopyranoside at an OD600 of 0.6, cultivated for 16 hours at 18° C. and harvested by centrifugation. Bacterial pellets were resusupended in 100 mM sodium phosphate buffer pH 7.0 containing 0.1 mM thiamine-pyrophosphate, 1 mM MgCl2, and 1 μM FAD at a concentration of 1 gram wet weight per 25 ml of buffer and disrupted by sonification. The crude protein extract obtained after centrifugation was used for ALS activity measurements.
as §1

[6] = target: T4, Arabidopsis thaliana W574L-mutant ALS (Arabidopsis thaliana, UniProt P17597, E575Q/W574L); assay: biochemical; details: for IC50: read-out: pI50 W574L (converted); for Resistance Factor W574L: relative to WT, from measured pI50
T4 construct: vector-encoded N-terminal fusion of pET-32a(+) (Trx/His/S tag by own knowledge); made in house; host or cells: Escherichia coli AD494
Procedure: as §5, §1

[7] = target: T5, Arabidopsis thaliana P197S-mutant ALS (Arabidopsis thaliana, UniProt P17597, E575Q/P197S); assay: biochemical; details: for IC50: read-out: pI50 P197S (converted); for Resistance Factor P197S: relative to WT, from measured pI50
T5 construct: vector-encoded N-terminal fusion of pET-32a(+) (Trx/His/S tag by own knowledge); made in house; host or cells: Escherichia coli AD494
Procedure: as §5, §1

[8] = target: T6, Arabidopsis thaliana S653N-mutant ALS (Arabidopsis thaliana, UniProt P17597, E575Q/S653N); assay: biochemical; details: for IC50: read-out: pI50 S653N (converted); for Resistance Factor S653N: relative to WT, from measured pI50
T6 construct: vector-encoded N-terminal fusion of pET-32a(+) (Trx/His/S tag by own knowledge); made in house; host or cells: Escherichia coli AD494
Procedure: as §5, §1

[9] = Kinetic parameters of enzymatic activity of AHAS mutants; format: biochemical, Arabidopsis thaliana; details: pyruvate varied 0-120 mM
Procedure: as §5, with “The coding sequences of the Arabidopsis thaliana wild-type and P197S-, W574L-, and S653N-mutant ALS genes were cloned into Novagen pET-32a(+) vectors and the vectors transformed into Escherichia coli AD494 according to the instructions of the manufacturer. Bacteria were” for “Bacteria were”
ALS assays were carried out in 96-well microtiter plates using a modification of the procedure described by Ray (1984), Plant Physiol 75:827-831. The reation mixture contained 20 mM potassium phosphate buffer pH 7.0, 20 mM sodium pyruvate, 0.45 mM thiamine-pyrophosphate, 0.45 mM MgCl2, 9 μM FAD, ALS enzyme and various concentrations of ALS inhibitors in a final volume of 90 μl. Assays were initiated by adding enzyme and terminated after 75 min incubation at 30° C. by the addition to 40 μl 0.5 M H2SO4. […] The pI50 values measured for the different mutant AHAS proteins and calculated for the mixtures of two different AHAS enzymes are shown in Table 3. […] Reaction velocities were tiffed to the Michalis-Menten equation with the XLFit curve fitting program.

[10] = Brassica napus, topical, 432 h, read-out: % phytotox
[11] = measured, crude extract of E. coli expressed enzyme
[12] = Brassica napus, topical, 432 h, AI dose rate 12.5 gai/ha, read-out: % phytotox

Molecule	pI50 P197S & W574L [1]	Resistance Factor P197S & W574L [1]	pI50 S653N & W574L [2]	Resistance Factor S653N & W574L [2]	IC50 [5]	IC50 [6, 11]	Resistance Factor W574L [6]	IC50 [7, 11]	Resistance Factor P197S [7]	IC50 [8, 11]	Resistance Factor S653N [8]	Km [9]	Vmax [9]	further results
COc1cc(OC)n2nc(S(=O)(=O)Nc3c(Cl)ccc(C)c3Cl)nc2n1 [Metosulam, metosulam]	5.2	2512	6.4	158	2.51 nM	20 µM	7943	1580 nM	631	6.31 nM	3			pest or weed control at 30 g/ha [3, 10]: 35%; pest or weed control at 30 g/ha [4, 10]: 100%
CCS(=O)(=O)c1cccnc1S(=O)(=O)NC(=O)Nc1nc(OC)cc(OC)n1 [Rimsulfuron, rimsulfuron]	5.7	63	6.3	16	31.6 nM	10 µM	316	398 nM	13	20 nM	1			pest or weed control at 12.5 g/ha [3, 12]: 68%; pest or weed control at 12.5 g/ha [4, 12]: 100%
COc1cc(OC)nc(NC(=O)NS(=O)(=O)N(C)S(C)(=O)=O)n1 [Amidosulfuron, amidosulfuron]	<4	>501	5.6	13	200 nM	> 100 µM	>501	> 100000 nM	>501	7.94 nM	0			pest or weed control at 30 g/ha [3, 10]: 3%; pest or weed control at 30 g/ha [4, 10]: 98%
COc1cc(OC)nc(Oc2cccc(Oc3nc(OC)cc(OC)n3)c2C(=O)O)n1 [Bispyribac-sodium, bispyribac-sodium]	6.1	40	5.8	79	20 nM	7.94 µM	398	79.4 nM	4	251 nM	13			pest or weed control at 50 g/ha [3, 10]: 75%; pest or weed control at 50 g/ha [4, 10]: 100%
COc1cc(OC)nc(NC(=O)NS(=O)(=O)c2ncccc2C(F)(F)F)n1 [Flazasulfuron, flazasulfuron]	6.2	794	7.5	40	0.794 nM	3.16 µM	3981	100 nM	126	0.316 nM	0			pest or weed control at 50 g/ha [3, 10]: 80%; pest or weed control at 50 g/ha [4, 10]: 100%
COc1ncc(F)c2nc(S(=O)(=O)Nc3c(F)cccc3F)nn12 [Florasulam, florasulam]	5.5	200	5.7	126			1585		25		8			% phytotox ([3]; AI dose rate 10 gai/ha): 70%; % phytotox ([4]; AI dose rate 10 gai/ha): 100%; pI50 WT [5]: 7.8; pI50 W574L [6, 11]: 4.6; pI50 P197S [7, 11]: 6.4; pI50 S653N [8, 11]: 6.9
B1												2.1 ± 0.1 mM	42.7 ± 1.3 ΔE/min mg	
B2												5.8 ± 0.4 mM	32.0 ± 1.4 ΔE/min mg	
B3												6.9 ± 0.2 mM	54.4 ± 2.8 ΔE/min mg	
B4												5.5 ± 0.8 mM	50.0 ± 6.1 ΔE/min mg	
